Measured values reported in patent publication US20130071854A1, “METHODS FOR THE IDENTIFICATION AND CHARACTERIZATION OF HDAC INTERACTING COMPOUNDS” (priority 2009, published 2013).
Where two headings read alike, the source gives them in different places.

How the values were obtained:
ALDH2 = molecular target: T1, ALDH2 (Homo sapiens, UniProt P05091); experiment: Competition binding assay in cell lysate, affinity matrix, MS
T1 construct: endogenous in cells
T1 sequence (P05091 18-517): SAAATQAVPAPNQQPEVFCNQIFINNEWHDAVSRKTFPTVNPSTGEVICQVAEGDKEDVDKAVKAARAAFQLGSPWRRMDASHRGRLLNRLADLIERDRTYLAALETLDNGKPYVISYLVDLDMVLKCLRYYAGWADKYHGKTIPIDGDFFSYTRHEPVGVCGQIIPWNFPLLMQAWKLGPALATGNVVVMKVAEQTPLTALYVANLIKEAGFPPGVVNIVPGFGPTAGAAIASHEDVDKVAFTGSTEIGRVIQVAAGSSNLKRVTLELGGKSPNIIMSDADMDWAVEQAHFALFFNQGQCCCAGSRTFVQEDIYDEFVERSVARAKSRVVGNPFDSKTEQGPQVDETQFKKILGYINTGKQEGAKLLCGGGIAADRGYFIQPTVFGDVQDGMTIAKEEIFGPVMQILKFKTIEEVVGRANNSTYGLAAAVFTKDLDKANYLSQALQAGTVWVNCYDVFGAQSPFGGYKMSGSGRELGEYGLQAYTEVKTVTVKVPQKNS

PTER = molecular target: T2, PTER (Homo sapiens, UniProt Q96BW5); experiment: as above
T2 construct: endogenous in cells
T2 sequence (Q96BW5 1-349): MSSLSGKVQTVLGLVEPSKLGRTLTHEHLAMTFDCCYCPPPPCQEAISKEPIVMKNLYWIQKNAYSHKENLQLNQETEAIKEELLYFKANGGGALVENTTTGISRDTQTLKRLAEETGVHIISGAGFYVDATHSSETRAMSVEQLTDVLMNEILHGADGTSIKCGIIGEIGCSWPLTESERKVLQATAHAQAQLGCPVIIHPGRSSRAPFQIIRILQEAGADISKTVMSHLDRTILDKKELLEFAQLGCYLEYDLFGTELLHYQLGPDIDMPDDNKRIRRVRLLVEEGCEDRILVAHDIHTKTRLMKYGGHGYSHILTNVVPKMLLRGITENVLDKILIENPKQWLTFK

acetylated tubulin = experiment: Cell-based tubulin acetylation assay (immunofluorescence, western blotting); set-up: species or system human; conditions: for tubulin acetylation (in words): K562 and HeLa cells, immunofluorescence and western blotting
[1] = tested on: acetylated histones H3 and H4; experiment: Cell-based histone acetylation assay (immunofluorescence, western blotting); set-up: species or system human; conditions: K562 and HeLa cells
MTA2 = experiment: Competition binding assay in cell lysate, affinity matrix, MS (Mi-2/NuRD interactor)
[2] = molecular target: T3, non-HDAC targets (e.g. BZW2, ISOC2, aldehyde dehydrogenases) (Homo sapiens, UniProt O94788); experiment: Chemoproteomic binding profiling, K562 cell extract, SAHA/ITF2357 probe matrix (Kd app); conditions: protein ALDH1A2; selected HDACi off-targets
T3 construct: endogenous in cells; host or cells: K562 whole cell extract
T3 sequence (O94788 1-518): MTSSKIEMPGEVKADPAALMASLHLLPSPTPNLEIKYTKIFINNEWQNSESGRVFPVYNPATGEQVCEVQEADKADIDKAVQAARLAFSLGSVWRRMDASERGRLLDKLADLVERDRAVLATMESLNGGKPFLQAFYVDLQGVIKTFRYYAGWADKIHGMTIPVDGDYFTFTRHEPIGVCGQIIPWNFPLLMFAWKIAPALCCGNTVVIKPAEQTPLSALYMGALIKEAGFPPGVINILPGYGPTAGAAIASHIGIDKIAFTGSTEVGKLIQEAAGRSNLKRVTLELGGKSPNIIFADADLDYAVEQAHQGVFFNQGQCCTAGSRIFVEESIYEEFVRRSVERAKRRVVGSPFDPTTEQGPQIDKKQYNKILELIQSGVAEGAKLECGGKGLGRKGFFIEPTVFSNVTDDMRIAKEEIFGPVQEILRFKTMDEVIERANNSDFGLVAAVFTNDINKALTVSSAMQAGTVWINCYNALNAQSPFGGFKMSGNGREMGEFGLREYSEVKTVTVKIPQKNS

[3] = molecular target: T4, non-HDAC targets (e.g. BZW2, ISOC2, aldehyde dehydrogenases) (Homo sapiens, UniProt Q96AB3); experiment: as above; conditions: protein ISOC2; selected HDACi off-targets
T4 construct: endogenous in cells; host or cells: K562 whole cell extract
T4 sequence (Q96AB3 1-205): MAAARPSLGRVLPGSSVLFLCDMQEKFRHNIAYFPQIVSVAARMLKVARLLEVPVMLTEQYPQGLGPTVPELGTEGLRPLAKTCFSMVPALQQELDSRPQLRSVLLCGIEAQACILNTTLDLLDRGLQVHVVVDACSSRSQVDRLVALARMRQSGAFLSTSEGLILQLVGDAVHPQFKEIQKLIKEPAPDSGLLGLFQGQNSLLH

[4] = molecular target: T5, non-HDAC targets (e.g. BZW2, ISOC2, aldehyde dehydrogenases) (Homo sapiens, UniProt Q9Y6E2); experiment: as above; conditions: protein BZW2; selected HDACi off-targets
T5 construct: endogenous in cells; host or cells: K562 whole cell extract
T5 sequence (Q9Y6E2 1-419): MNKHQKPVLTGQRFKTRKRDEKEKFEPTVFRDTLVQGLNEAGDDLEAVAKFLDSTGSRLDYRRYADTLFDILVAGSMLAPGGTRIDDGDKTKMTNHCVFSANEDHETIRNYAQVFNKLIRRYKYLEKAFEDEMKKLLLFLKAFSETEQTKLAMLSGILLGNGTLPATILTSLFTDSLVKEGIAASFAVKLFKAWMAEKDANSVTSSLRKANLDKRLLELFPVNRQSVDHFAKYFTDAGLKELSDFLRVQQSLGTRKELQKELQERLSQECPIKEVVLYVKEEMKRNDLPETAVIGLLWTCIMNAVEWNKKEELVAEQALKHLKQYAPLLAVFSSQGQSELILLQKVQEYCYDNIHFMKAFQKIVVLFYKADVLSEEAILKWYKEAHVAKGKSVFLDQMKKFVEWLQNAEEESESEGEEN

MIER1 = experiment: Chemoproteomic binding profiling, K562 cell extract, SAHA/ITF2357 probe matrix (Kd app), ELSA (ELM-SANT) domain protein; set-up: species or system human; conditions: ELSA (ELM-SANT) domain proteins
MIER3 = experiment: as above; set-up: species or system human; conditions: ELSA (ELM-SANT) domain proteins
RERE = experiment: as above; set-up: species or system human; conditions: protein RERE; ELSA (ELM-SANT) domain proteins
EHMT2 = experiment: Chemoproteomic binding profiling, K562 cell extract, SAHA/ITF2357 probe matrix (Kd app), ELSA (ELM-SANT) domain proteins group; set-up: species or system human; conditions: protein EHMT2

SMILES	IC50 (ALDH2; IC50, ALDH2, K-562 cell lysate)	IC50 (ALDH2; IC50, ALDH2, mix of Jurkat and Ramos cell lysates)	IC50 (PTER)	IC50 (PTER; IC50, PTER, mix of Jurkat and Ramos cell lysates)	tubulin acetylation (in words) (acetylated tubulin)	histone acetylation (in words) [1]	IC50 (MTA2; K-562 cell lysate)	IC50 (MTA2; mix of Jurkat and Ramos cell lysates)	Kd [2]	Kd [3]	Kd [4]	Kd (MIER1)	Kd (MIER3)	Kd (RERE)	Kd (EHMT2)	IC50 (ALDH2; read-out: IC50)	EC50 (acetylated tubulin; Homo sapiens, HeLa cells, treated 4 h, western blotting)	tubulin acetylation (in words) (acetylated tubulin; listed as Bufexamac)
O=C(CCCCCCC(=O)Nc1ccccc1)NO [SAHA, suberoylanilide hydroxamic acid]	0.63 µM	4.81 µM	≥ 10 µM	10 µM	increased steady state acetylation of tubulin and histones	increased steady state acetylation of tubulin and histones	10 µM	0.53 µM	–	–	–	–	–	–	–	–	–	–
CCCC(CCC)C(=O)O [valproate, valproic acid]	–	–	–	–	did not affect tubulin	elicited staining of acetylated histones	–	–	> 10 µM	> 10 µM	> 10 µM	507 µM	344 µM	3120 µM	1210 µM	–	–	–
Nc1ccccc1NC(=O)c1ccc(CNC(=O)OCc2cccnc2)cc1 [MS-275]	–	–	≥ 300 µM	–	–	–	300 µM	–	> 300 µM	> 300 µM	> 300 µM	> 300 µM	> 300 µM	> 300 µM	> 300 µM	≥ 300 µM	–	–
CCCCOc1ccc(CC(=O)NO)cc1 [bufexamac]	–	–	–	–	hyperacetylation of tubulin	did not affect the acetylation of histones	–	–	3 µM	3 µM	3 µM	367 µM	165 µM	33 µM	105 µM	–	2.9 µM	strong increase in acetylated tubulin
O=C(/C=C/c1cccc(S(=O)(=O)Nc2ccccc2)c1)NO [belinostat]	–	–	–	–	–	–	–	–	> 10 µM	> 10 µM	2.25 µM	0.17 µM	–	–	–	–	–	–
Nc1ccccc1NC(=O)CCCCCCC(=O)Nc1ccccc1 [BML-210]	–	–	–	–	–	–	–	–	> 85 µM	> 85 µM	> 85 µM	50 µM	47 µM	> 85 µM	> 85 µM	–	–	–
